The values that follow come from patent US20230104936A1, “TRPML MODULATORS” (Casma Therapeutics, Inc., priority 2019, published 2023).

Usually AC50 stands for the midpoint of the concentration-response curve, whichever way the signal moves. A higher AC50 goes with weaker potency.

In one test the test system is TFEB. Put plainly: TFEB nuclear translocation assay, HeLa wt cells. In kind it is cell-based. Conditions: 2 hrs compound treatment, Table 1 does not say HeLa wt or TRPML1 KO. In outline: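 Cells are plated overnight, exposed to compounds for 2 hrs at 37° C, fixed with 4% PFA, blocked, and stained overnight at 4° C with rabbit anti-TFEB. After Alexa 488 secondary and Hoechst, nuclei and a perinuclear ring are segmented to give a nuclear:ring intensity ratio and AC50.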
The compound `CC(c1cc(Cl)cnc1N1CCC(CN2CCC(F)(F)CC2)CC1)S(=O)(=O)c1ccc2c(c1)CCC2` (single isomer, unassigned) [Compound A-994, 5-chloro-2-(4-((4,4-difluoropiperidin-1-yl)methyl)piperidin-1-yl)-3-(1-((2,3-dihydro-1H-inden-5-yl)sulfonyl)ethyl)pyridine] registered an AC50 of at most 2000 nM.

Turning to `CC(c1cccc(F)c1N1CCC(CN2CCC(F)(F)CC2)CC1)S(=O)(=O)c1ccc(C(F)F)cc1` (single isomer, unassigned) [Compound A-998, 1-((1-(2-(1-((4-(difluoromethyl)phenyl)sulfonyl)ethyl)-6-fluorophenyl)piperidin-4-yl)methyl)-4,4-difluoropiperidine], the AC50 lay in the range of 2010 to 8000 nM. On the same count and under the same terms, the result for `CC(c1cccc(F)c1N1CCCCC1)S(=O)(=O)c1ccc(S(=N)(=O)C(F)F)cc1` (single isomer, unassigned) [Compound A-937, (difluoromethyl)(4-((1-(3-fluoro-2-(piperidin-1-yl)phenyl)ethyl)sulfonyl)phenyl)(imino)-l6-sulfanone] reads 2010 to 8000 nM.

Staying with this test, now noted: Homo sapiens, HeLa, 2 h, 2 hrs compound treatment, Table 1 does not say HeLa wt or TRPML1 KO.
As to `Cn1cc(S(=O)(=O)Nc2ccccc2N2CCN(c3ccc(Cl)cc3F)CC2)cn1` [Compound A-6, N-{2-[4-(4-chloro-2-fluorophenyl)piperazin-1-yl]phenyl}-1-methyl-1H-pyrazole-4-sulfonamide], the concentration at half-maximal activity (AC50) is at least 10000 nM. `COCC1(C)CCN(c2ccccc2NS(=O)(=O)c2ccc(C)c(F)c2)CC1` [Compound A-617, 3-fluoro-N-{2-[4-(methoxymethyl)-4-methylpiperidin-1-yl]phenyl}-4-methylbenzene-1-sulfonamide]: the AC50 lay in the range of 2010 to 8000 nM.

On to `CN(C)S(=O)(=O)c1ccc(S(=O)(=O)N2CC(c3ccc(Cl)cc3F)Nc3ccccc32)cc1` (centres unmarked) [Compound A-171, 4-{[3-(4-chloro-2-fluorophenyl)-1,2,3,4-tetrahydroquinoxalin-1-yl]sulfonyl}-N,N-dimethylbenzene-1-sulfonamide], for which the concentration at half-maximal activity (AC50) is 2010 to 8000 nM.

Compound `O=S(=O)(Nc1cccc(Cl)c1N1CCOCC1)c1cnn2c1CCCC2` [Compound A-369, N-[3-chloro-2-(morpholin-4-yl)phenyl]-4H,5H,6H,7H-pyrazolo[1,5-a]pyridine-3-sulfonamide] gave a half-maximal activity concentration (AC50) of at least 10000 nM.

For `Cc1ccc(S(=O)(=O)Nc2ccccc2N2CCC(O)(c3ccc(F)cn3)CC2)cc1` [Compound A-408, N-{2-[4-(5-fluoropyridin-2-yl)-4-hydroxypiperidin-1-yl]phenyl}-4-methylbenzene-1-sulfonamide], the concentration at half-maximal activity (AC50) is at least 10000 nM. The same measure, in the same setting: the same measure for `CN(C)S(=O)(=O)c1ccc(S(=O)(=O)Nc2ccccc2N2CCN(C(C)(C)C)CC2)cc1` [Compound A-337, N4-[2-(4-tert-butylpiperazin-1-yl)phenyl]-N1,N1-dimethylbenzene-1,4-disulfonamide]: 8010 to 9990 nM; for `CC(C)CN1CCN(c2ccccc2NS(=O)(=O)c2ccc(S(=O)(=O)N(C)C)cc2)CCC1=O` [Compound A-526, N1,N1-dimethyl-N4-{2-[4-(2-methylpropyl)-5-oxo-1,4-diazepan-1-yl]phenyl}benzene-1,4-disulfonamide]: 2010 to 8000 nM. Same read-out and setting: the same measure for `COC1(C(=O)N2CCN(c3ccccc3NS(=O)(=O)c3ccc(S(=O)(=O)N(C)C)cc3)CC2)CCCC1` [Compound A-444, N4-{2-[4-(1-methoxycyclopentanecarbonyl)piperazin-1-yl]phenyl}-N1,N1-dimethylbenzene-1,4-disulfonamide]: at most 2000 nM; for `CCOCCC1CCN(c2ccccc2NS(=O)(=O)c2ccc(S(=O)(=O)N(C)C)cc2)CC1` [Compound A-498, N4-{2-[4-(2-ethoxyethyl)piperidin-1-yl]phenyl}-N1,N1-dimethylbenzene-1,4-disulfonamide]: at most 2000 nM. Still for that read-out and setting: the result for `Cc1cccc(S(=O)(=O)Nc2ccccc2N2CCC3(CC2)COC(C)(C)C3)c1` [Compound A-665, N-(2-{3,3-dimethyl-2-oxa-8-azaspiro[4.5]decan-8-yl}phenyl)-3-methylbenzene-1-sulfonamide] reads 2010 to 8000 nM.

Take `CN(C)S(=O)(=O)c1ccc(S(=O)(=O)Nc2ccc3ccnn3c2N2CCCCC2)cc1` [Compound A-793, N1,N1-dimethyl-N4-[7-(piperidin-1-yl)pyrazolo[1,5-a]pyridin-6-yl]benzene-1,4-disulfonamide]: the concentration at half-maximal activity (AC50) lay in the range of 2010 to 8000 nM. Same read-out and setting: the same measure for `CC(c1cc(Cl)cnc1N1CCC(CN2CCC(F)(F)CC2)CC1)S(=O)(=O)c1ccc(S(=O)(=O)N(C)C)cc1` (centres unmarked) [Compound A-958, 4-[1-(5-chloro-2-{4-[(4,4-difluoropiperidin-1-yl)methyl]piperidin-1-yl}pyridin-3-yl)ethanesulfonyl]-N,N-dimethylbenzene-1-sulfonamide]: at most 2000 nM. `CN(C)S(=O)(=O)c1ccc(S(=O)(=O)n2c(=O)n(C3CCN(c4ccc(Cl)cc4F)CC3)c3ccccc32)cc1` [Compound A-63, 4-({3-[1-(4-chloro-2-fluorophenyl)piperidin-4-yl]-2-oxo-2,3-dihydro-1H-1,3-benzodiazol-1-yl}sulfonyl)-N,N-dimethylbenzene-1-sulfonamide] came in with an AC50 of 2010 to 8000 nM. As for `CN(C)S(=O)(=O)c1ccc(S(=O)(=O)Nc2cccnc2N2CCC(c3ccc(Cl)cc3F)CC2)cc1` [Compound A-109, N4-{2-[4-(4-chloro-2-fluorophenyl)piperidin-1-yl]pyridin-3-yl}-N1,N1-dimethylbenzene-1,4-disulfonamide], the AC50 was at most 2000 nM. On the same count and under the same terms, the result for `CN(C)S(=O)(=O)c1ccc(S(=O)(=O)Nc2ccccc2N2[C@@H]3CC[C@H]2CN(c2ccc(Cl)cc2F)C3)cc1` [Compound A-25, N4-{2-[(1R,5S)-3-(4-chloro-2-fluorophenyl)-3,8-diazabicyclo[3.2.1]octan-8-yl]phenyl}-N1,N1-dimethylbenzene-1,4-disulfonamide] reads at most 2000 nM; that for `CC(c1ccccc1N1CCN(Cc2ccccc2)CC1)S(=O)(=O)c1ccc(S(=O)(=O)N(C)C)cc1` (centres unmarked) [Compound A-465, 4-((1-(2-(4-benzylpiperazin-1-yl)phenyl)ethyl)sulfonyl)-N,N-dimethylbenzenesulfonamide], at most 2000 nM; that for `CC(C)(C)S(=O)(=O)c1ccc(S(=O)(=O)Nc2cc(Cl)ccc2N2CCOCC2)cc1` [Compound A-276, N-[5-chloro-2-(morpholin-4-yl)phenyl]-4-(2-methylpropane-2-sulfonyl)benzene-1-sulfonamide], at least 10000 nM.

In turn, `CC1(C)Cc2cc(S(=O)(=O)Nc3ccccc3N3CCCC34CCCOC4)ccc2O1` (centres unmarked) [Compound A-640, 2,2-dimethyl-N-(2-{7-oxa-1-azaspiro[4.5]decan-1-yl}phenyl)-2,3-dihydro-1-benzofuran-5-sulfonamide] came in with a half-maximal activity concentration (AC50) of 2010 to 8000 nM. Same read-out and setting: the result for `CC(c1cccc(F)c1N1CCC(CN2C[C@H]3C[C@@H](C2)O3)CC1)S(=O)(=O)c1ccc(S(=O)(=O)N(C)C)cc1` (single isomer, unassigned) [Compound A-848] reads at most 2000 nM; that for `CC1(C)CC2(CCN(c3ccccc3NS(=O)(=O)CCc3ccccc3)CC2)CO1` [Compound A-743, N-(2-{3,3-dimethyl-2-oxa-8-azaspiro[4.5]decan-8-yl}phenyl)-2-phenylethane-1-sulfonamide], at least 10000 nM. The same measure, in the same setting: the result for `COCC1(C)CCN(c2ccccc2NS(=O)(=O)c2ccc3c(c2)OC2(CCC2)O3)CC1` [Compound A-685, N-{2-[4-(methoxymethyl)-4-methylpiperidin-1-yl]phenyl}spiro[1,3-benzodioxole-2,1′-cyclobutane]-6-sulfonamide] reads at most 2000 nM; that for `CN1CCC(N(C)S(=O)(=O)c2ccc(NC(=O)COc3ccccc3-c3ccccc3)cc2)CC1` [Compound A-404, 2-{[1,1′-biphenyl]-2-yloxy}-N-{4-[methyl(1-methylpiperidin-4-yl)sulfamoyl]phenyl}acetamide], 2010 to 8000 nM; that for `CN1CCN(CCCS(=O)(=O)Nc2ccccc2N2CCN(C(=O)C(C)(C)C)CC2)CC1` [Compound A-417, N-{2-[4-(2,2-dimethylpropanoyl)piperazin-1-yl]phenyl}-3-(4-methylpiperazin-1-yl)propane-1-sulfonamide], 2010 to 8000 nM. Same read-out and setting: the result for `O=S(=O)(Nc1cccc(N2CCC(c3ccc(Cl)cc3F)CC2)c1)c1ccccc1F` [Compound A-114, N-{3-[4-(4-chloro-2-fluorophenyl)piperidin-1-yl]phenyl}-2-fluorobenzene-1-sulfonamide] reads at least 10000 nM; that for `CC(c1cccc(F)c1N1CCC(COC(C)(C)C)CC1)S(=O)(=O)c1ccc(C(F)F)cc1` (single isomer, unassigned) [Compound A-976, 4-(tert-butoxymethyl)-1-(2-(1-((4-(difluoromethyl)phenyl)sulfonyl)ethyl)-6-fluorophenyl)piperidine], at most 2000 nM. `CN(C)S(=O)(=O)c1ccc(S(=O)(=O)Nc2nnc(C3CCN(c4ccc(Cl)cc4F)CC3)s2)cc1` [Compound A-64, N1-(5-(1-(4-chloro-2-fluorophenyl)piperidin-4-yl)-1,3,4-thiadiazol-2-yl)-N4,N4-dimethylbenzene-1,4-disulfonamide] had an AC50 of at least 10000 nM. The same measure, in the same setting: the same measure for `CCOCCC1CCN(c2ccccc2NS(=O)(=O)c2ccc3c(c2)CC(C)(C)O3)CC1` [Compound A-631, N-{2-[4-(2-ethoxyethyl)piperidin-1-yl]phenyl}-2,2-dimethyl-2,3-dihydro-1-benzofuran-5-sulfonamide]: at most 2000 nM.

`CC(N1CCN(c2ccccc2NS(=O)(=O)c2ccc(Cl)cc2)CC1)C(F)(F)F` (centres unmarked) [Compound A-541, 4-chloro-N-{2-[4-(1,1,1-trifluoropropan-2-yl)piperazin-1-yl]phenyl}benzene-1-sulfonamide] yielded a half-maximal activity concentration (AC50) of at most 2000 nM.

Take `CC1(C)Cc2cc(S(=O)(=O)Nc3ccccc3N3CCC(C(C)(F)F)CC3)ccc2O1` [Compound A-636, N-{2-[4-(1,1-difluoroethyl)piperidin-1-yl]phenyl}-2,2-dimethyl-2,3-dihydro-1-benzofuran-5-sulfonamide]: the concentration at half-maximal activity (AC50) was at most 2000 nM.
